Literature values as cited in US10980740B2, “Tranexamic acid spray for knee arthroplasty” (SHILPA MEDICARE LIMITED, priority 2017, dated 2021).
Like-named read-outs stand apart in the source and are kept apart here.

What was measured:
[1] = system: patients undergoing elective total knee arthroplasty
[2] = system: Total knee arthroplasty patients
[3] = molecular target: plasminogen (Homo sapiens, UniProt P00747)
plasminogen, sequence (P00747 20-810 limits assumed, species assumed): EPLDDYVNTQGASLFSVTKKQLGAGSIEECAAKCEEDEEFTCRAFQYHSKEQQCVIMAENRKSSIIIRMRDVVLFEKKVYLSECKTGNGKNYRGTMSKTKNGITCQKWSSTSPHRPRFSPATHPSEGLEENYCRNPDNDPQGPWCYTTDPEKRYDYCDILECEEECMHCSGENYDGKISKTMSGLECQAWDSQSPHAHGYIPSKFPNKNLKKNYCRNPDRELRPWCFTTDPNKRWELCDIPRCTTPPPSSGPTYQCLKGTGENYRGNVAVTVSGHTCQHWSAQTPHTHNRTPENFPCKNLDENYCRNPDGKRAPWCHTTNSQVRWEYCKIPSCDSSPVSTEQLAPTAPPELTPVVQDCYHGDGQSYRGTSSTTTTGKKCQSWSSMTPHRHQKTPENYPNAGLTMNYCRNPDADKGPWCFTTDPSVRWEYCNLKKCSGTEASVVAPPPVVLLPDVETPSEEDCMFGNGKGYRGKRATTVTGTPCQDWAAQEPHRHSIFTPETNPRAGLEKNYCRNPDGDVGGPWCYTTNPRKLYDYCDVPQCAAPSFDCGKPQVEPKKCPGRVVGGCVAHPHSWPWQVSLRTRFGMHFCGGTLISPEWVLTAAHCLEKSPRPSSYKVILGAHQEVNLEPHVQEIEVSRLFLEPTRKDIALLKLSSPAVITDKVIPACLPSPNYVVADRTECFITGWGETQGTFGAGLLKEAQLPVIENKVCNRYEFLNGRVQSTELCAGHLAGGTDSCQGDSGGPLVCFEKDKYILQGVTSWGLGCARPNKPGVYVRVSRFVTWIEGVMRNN

potency in vitro relative to aminocaproic acid [3]: about 10 times
SMILES: NC[C@H]1CC[C@H](C(=O)O)CC1 [Tranexamic acid]
reducing calculated blood loss and transfusion rates ([1]; intravenous): effective
reducing calculated blood loss and transfusion rates ([1]; topical, 3 gm diluted in 45 mL normal saline, applied after cementation): effective
systemic side effects ([2]; topical tranexamic acid): reduces the systemic side effects
reduction of peri- and post-operative blood loss, topical compared with intravenous ([2]; total knee arthroplasty, topical 2 gm in intra-articular drain, clamped one hour): equally efficacious
